Assay results from US11197857B2, “Combination therapy” (GlaxoSmithKline Intellectual Property Development Limited, priority 2016, dated 2021).

Assays:
[1] = tested on: 196 human cancer cell lines; assay: 6-day growth-death assay (Cell Titer Glo); type: cell-based
Description: (§2) The growth of all cell lines was evaluated over time across a wide range of seeding densities to identify conditions that permitted proliferation throughout the entire 6-day assay. Cells were plated at the optimal seeding density and after overnight incubation, a 20-point 2-fold titration of compound was added and plates were incubated for 6 days. A replicate plate of cells was harvested at the time of compound addition to quantify the starting number of cells (T0). Values obtained after the 6 day treatment were expressed as a function of the T0 value and plotted against compound concentration. The T0 value was normalized to 100% and represents the number of cells at the time of compound addition. The data were fit with a 4 parameter equation to generate a concentration response curve and the growth IC50 (gIC50) was determined. The gIC50 is the midpoint of the ‘growth window’, the difference between the number of cells at the time of compound addition (To) and the number of cells after 6 days (DMSO control). The growth-death assay can be used to quantify the net population change, clearly defining cell death (cytotoxicity) as fewer cells compared to the number at the time of compound addition (To).

AML cell lines = assay: 6-day growth-death assay (Cell Titer Glo); type: cell-based, human
Description: as §2

Lymphoma cell lines = assay: 6-day growth-death assay (Cell Titer Glo); type: cell-based, human; details: 59 cell lines
Description: as §2

[2] = tested on: Bladder cancer cell lines; assay: 6-day growth-death assay (Cell Titer Glo); type: cell-based, human; details: 18 cell lines
Description: as §2

Breast cancer cell lines = assay: 6-day growth-death assay (Cell Titer Glo); type: cell-based, human; details: 29 cell lines
Description: as §2

Colon cancer cell lines = assay: 6-day growth-death assay (Cell Titer Glo); type: cell-based, human
Description: as §2

Kidney cancer cell lines = assay: 6-day growth-death assay (Cell Titer Glo); type: cell-based, human; details: 10 cell lines
Description: as §2

NSCLC cell lines = assay: 6-day growth-death assay (Cell Titer Glo); type: cell-based, human; details: 25 cell lines
Description: as §2

Melanoma cell lines = assay: 6-day growth-death assay (Cell Titer Glo); type: cell-based, human
Description: as §2

[3] = tested on: Prostate cancer cell lines; assay: 6-day growth-death assay (Cell Titer Glo); type: cell-based, human; details: 4 cell lines
Description: as §2

[4] = tested on: ADMA, MMA, SDMA in Toledo cells; assay: arginine methylation western analysis (time course and washout); type: cell-based, human; parameters: time to return of MMA to baseline after washout / time to return of ADMA to baseline after washout / time to return of SDMA to baseline after washout: dose or concentration left out as unconfirmed
Description: (B) Representative western blots of arginine methylation marks. Regions quantified are denoted by black bars on the right of the gel.
(B) Representative western blots of arginine methylation marks. Regions quantified for (A) are denoted by black bars on the side of the gel.
As predicted, ADMA methylation decreased while MMA increased upon compound exposure (FIG. 12). […] Given the detection of numerous substrates with varying kinetics, and variability of ADMA levels among DMSO-treated samples, both the full lane and a prominent 45 kDa band were characterized to assess ADMA. Increases in MMA were apparent by 24 hours and near maximal by 48 hours while decreases in the 45 kDa ADMA band required 72-96 hours to achieve maximal effect. Increases in SDMA were apparent after 48 hours of compound exposure and continued to increase through 120 hours, consistent with the potential switch from conversion of MMA to ADMA by Type I PRMTs to SDMA by Type II PRMTs (FIG. 12).
Cells were then washed, cultured in Compound A-free media, samples were collected daily through 120 hours, and arginine methylation levels were examined by western analysis. […] SDMA appeared to continue to increase even after 6 hours of washout. This is consistent with the continued increase observed through 120 hours without any obvious plateau (FIG. 12) coupled with the durable increase in MMA that has not yet returned to baseline after washout. Durability of each modification generally reflected the kinetics of arginine methylation changes brought about by Compound A, with MMA being the most rapid.

Toledo cells = tested on: Toledo cells
Description: FIG. 18: Propidium iodide FACS analysis of cell cycle in human lymphoma cell lines. […] Data represents the average±SEM of biological replicates, n=2.

A375 = assay: 6-day growth-death assay (Cell Titer Glo); type: cell-based, human
Description: (§1) Cell Titer Glo was used to measure growth inhibition as previously described.

COLO741 = assay: 6-day growth-death assay (Cell Titer Glo); type: cell-based, human
Description: as §1

HT144 = assay: 6-day growth-death assay (Cell Titer Glo); type: cell-based, human
Description: as §1

IGR-1 = assay: 6-day growth-death assay (Cell Titer Glo); type: cell-based, human
Description: as §1

MDA-MB-435S = assay: 6-day growth-death assay (Cell Titer Glo); type: cell-based, human
Description: as §1

SK-MEL-2 = assay: 6-day growth-death assay (Cell Titer Glo); type: cell-based, human
Description: as §1

SK-MEL-5 = assay: 6-day growth-death assay (Cell Titer Glo); type: cell-based, human
Description: as §1

[5] = tested on: panel of 4 ccRCC cell lines
[6] = tested on: Toledo (human DLBCL) xenograft; assay: Toledo xenograft efficacy
[7] = Homo sapiens, read-out: Median gIC50

CCOCC1(COCC)CCC(c2n[nH]cc2CN(C)CCNC)CC1 [Compound A]
IC50 [1, 7]: 2120 nM
% Cytotoxic (cell lines with negative Ymin-T0) ([1]; Total, 196 cell lines): 23%
% gIC100 < 2 μM (share of cell lines) ([1]; Total, 196 cell lines): 4%
Median gIC100 ([1]; Total, 196 cell lines): 29.33 µM
number of cell lines in which cytotoxicity was induced (AML cell lines; 10 AML cell lines): 5
% Cytotoxic (cell lines with negative Ymin-T0) (AML cell lines; AML, 10 cell lines): 50%
% gIC100 < 2 μM (share of cell lines) (AML cell lines; AML, 10 cell lines): 0%
Median gIC100 (AML cell lines; AML, 10 cell lines): 16.72 µM
IC50 (AML cell lines; [7]): 540 nM
% Cytotoxic (cell lines with negative Ymin-T0) (Lymphoma cell lines): 54%
% gIC100 < 2 μM (share of cell lines) (Lymphoma cell lines): 14%
Median gIC100 (Lymphoma cell lines): 21.62 µM
% Cytotoxic (cell lines with negative Ymin-T0) [2]: 0%
% gIC100 < 2 μM (share of cell lines) [2]: 0%
Median gIC100 [2]: 29.33 µM
% Cytotoxic (cell lines with negative Ymin-T0) (Breast cancer cell lines): 10%
% gIC100 < 2 μM (share of cell lines) (Breast cancer cell lines): 0%
Median gIC100 (Breast cancer cell lines): 29.36 µM
% Cytotoxic (cell lines with negative Ymin-T0) (Colon cancer cell lines; Colon, 34 cell lines): 3%
% gIC100 < 2 μM (share of cell lines) (Colon cancer cell lines; Colon, 34 cell lines): 0%
Median gIC100 (Colon cancer cell lines; Colon, 34 cell lines): 29.33 µM
IC50 (Colon cancer cell lines; [7]): 5510 nM
% Cytotoxic (cell lines with negative Ymin-T0) (Kidney cancer cell lines): 0%
% gIC100 < 2 μM (share of cell lines) (Kidney cancer cell lines): 0%
Median gIC100 (Kidney cancer cell lines): 29.35 µM
% Cytotoxic (cell lines with negative Ymin-T0) (NSCLC cell lines): 16%
% gIC100 < 2 μM (share of cell lines) (NSCLC cell lines): 0%
Median gIC100 (NSCLC cell lines): 29.33 µM
% Cytotoxic (cell lines with negative Ymin-T0) (Melanoma cell lines; Melanoma, 7 cell lines): 0%
% gIC100 < 2 μM (share of cell lines) (Melanoma cell lines; Melanoma, 7 cell lines): 0%
Median gIC100 (Melanoma cell lines; Melanoma, 7 cell lines): 29.33 µM
nature of effect (Melanoma cell lines; all melanoma lines): cytostatic
% Cytotoxic (cell lines with negative Ymin-T0) [3]: 0%
% gIC100 < 2 μM (share of cell lines) [3]: 0%
Median gIC100 [3]: 29.34 µM
time after which increases in SDMA were apparent ([4]; 0.4 μM): 48 h
time by which increases in MMA were apparent ([4]; 0.4 μM): ≤ 24 h
time by which increases in MMA were near maximal ([4]; 0.4 μM): ≤ 48 h
time required for maximal decrease of 45 kDa ADMA band ([4]; 0.4 μM): 72 to 96 h
ADMA methylation change ([4]; 0.4 μM, up to 120 hours): decreased
MMA change ([4]; 0.4 μM, up to 120 hours): increased
SDMA level change ([4]; 0.4 μM, up to 120 hours): increase
time to return of ADMA to baseline after washout ([4]; then washout): ≤ 24 h
time to return of MMA to baseline after washout ([4]; then washout): ≤ 24 h
time to return of SDMA to baseline after washout ([4]; then washout): ≤ 96 h
concentrations giving accumulation of cells in sub-G1 (Toledo cells; beginning after 3 days of treatment): 1000 nM
concentrations giving increase in sub-G1 population (Toledo cells; by day 7): 100 nM
Ymin-T0 (A375; A375): 91.9
gIC100 (A375; A375): 29.33 ± 0.00 µM
IC50 (A375; Homo sapiens, A-375, read-out: gIC50): 50 ± 30 nM
Ymin-T0 (COLO741): 12.5
gIC100 (COLO741): 28.55 ± 1.40 µM
Ymin-T0 (HT144): 124.9
gIC100 (HT144): 29.33 ± 0.00 µM
Ymin-T0 (IGR-1): 507.0
gIC100 (IGR-1): 29.33 ± 0.00 µM
Ymin-T0 (MDA-MB-435S): 19.1
gIC100 (MDA-MB-435S): 29.33 ± 0.00 µM
Ymin-T0 (SK-MEL-2): 35.9
gIC100 (SK-MEL-2): 22.37 ± 12.11 µM
IC50 (SK-MEL-5; Homo sapiens, SK-MEL-5, read-out: gIC50): 90 ± 30 nM
Ymin-T0 (SK-MEL-5; SK-MEL-5): 31.8
gIC100 (SK-MEL-5; SK-MEL-5): 27.09 ± 3.92 µM
percent growth inhibition reached ([5]; all cell lines evaluated, within 6 days): 100%
concentration at which caspase cleavage occurred ([5]; only at the highest concentration): 30 µM
Body weight Difference (vs. vehicle) ([6]; 300 mg/kg QD oral, day 28): −3%
Regression ([6]; 300 mg/kg QD oral, day 28): (37%)
Body weight Difference (vs. vehicle) ([6]; 450 mg/kg QD oral, day 28): −8%
Regression ([6]; 450 mg/kg QD oral, day 28): (58%)
Body weight Difference (vs. vehicle) ([6]; 600 mg/kg QD oral, day 28): −7%
Regression ([6]; 600 mg/kg QD oral, day 28): (62%)
Body weight Difference (vs. vehicle) ([6]; […] mg/kg QD oral, day 28): −4%
body weight loss ([6]; any dose group, 150-600 mg/kg daily, 28 days): no significant body weight loss
doses at which regressions were observed ([6]; oral, daily, 28 days): ≥ 300 mg/kg
Body weight Difference (vs. vehicle) ([6]; second study, 37.5 mg/kg QD, day 25): −5%
Body weight Difference (vs. vehicle) ([6]; second study, 75 mg/kg BID, day 25): −4%
Body weight Difference (vs. vehicle) ([6]; second study, 75 mg/kg QD, day 25): −5%
Body weight Difference (vs. vehicle) ([6]; second study, 150 mg/kg QD, day 25): −7%
